Where no end group is shown, it is not given here.
How the values were obtained:
[1] = tested on: alveolar type II epithelial cells (T2 cells); test: Time course of cell adhesion/spreading of T2 cells on immobilized cell adhesion peptide substrates; format: cell-based; details: 24-hour culture
Procedure: Culture was conducted by using the cell adhesion peptides immobilized on a well and T2 cells, for 1-24 hours according to the method in Example 8.
As cell adhesion peptides, AG73 was used in B, E and M, FIB-1 was used in C, L and O, A3G72 was used in F, A4G82 was used in G and N, A5G71 was used in H, A5G77 was used in I, hA3G75 was used in J, and hA3G83 was used in K; FN was used as a standard substance in A and D.

[2] = tested on: alveolar type II epithelial cells (T2 cells); test: Inhibition of T2 cell adhesion by free peptide different from the immobilized peptide substrate; format: cell-based
In short: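 T2 cells cultured on immobilised peptide substrate, with a free peptide differing from the immobilised one added to the medium. Adhesion inhibition read as competition for syndecan binding.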

[3] = tested on: alveolar type II epithelial cells (T2 cells); details: known, usual requirement; cited from earlier work
[4] = tested on: alveolar type II epithelial cells (T2 cells); test: Static and forced stretching culture of T2 cells on MMAC-coated silicone wells with immobilized proteins or peptides; format: cell-based
Procedure: A silicone well coated with MMAC was obtained by pouring 0.5 ml of ethanol solution of 50 μg/ml of MMAC (ISP, International Specialty Products, USA) into a silicone well with a groove of 20 mm×20 mm×10 mm, absorbing excess solution, and conducting air-drying.
Into the silicone wells coated by the method described in Example 1, 10 μg/ml of cell adhesion protein solution of fibronectin (FN), laminin-1 (LN), dissolved in 0.1 M triethanolamine buffer solution of pH 8.8, or 0.25 mg/ml of cell adhesion peptide solution of FIB-1, AG73 was poured respectively, and the reaction was conducted for at least several hours at 37° C. to bind and immobilize these proteins or peptides having cell adhesion activity (see Example 6 described later for particulars of immobilization). Subsequently, alveolar type II epithelial cell (T2 cells) suspension was poured, 5×10^4/cm^2 per unit area, and the culture was started in a CO2 culture apparatus.
T2 cells, 2×10^5/cm^2 per unit area, were seeded on the silicone well wherein the cell adhesion proteins or peptides were immobilized, which had been prepared in an almost same manner as that of Example 2, and static culture was conducted for 1 day. After confirming that the seeded cells confluently spread all over the culture face, horizontal cell stretching was forcibly started at the stretching degree of twenty five percents and at the frequency of 15 times per minute, by using cell culture stretching apparatus (Scholar Tec), and the culture was continued one more day. After the culture was finished, photographs of cell adhesion state were taken with a phase contrast microscope (FIG. 2, top 4 rows).
T2 cells, 5×10^4/cm^2 per unit area, were seeded on the silicone well wherein the cell adhesion proteins or peptides were immobilized, which had been prepared in an almost same manner as that of Example 2, and static culture was conducted for 3 days. T2 cells grew in a manner similar to that shown in FIG. 1, 3d (results are not shown because they are overlapping). Then, the cells were subjected to the same stimuli of forced stretching as in Example 1, and the culture was continued one more day. After the culture was finished, photographs of cell adhesion state were taken with a phase contrast microscope (FIG. 2, middle 4 rows) (FN, 3dC-1dS, LN, 3dC-1dS, FIB-1, 3dC-1dS, and AG-73, 3dC-1dS).
Forced stretching culture was conducted for 3 days in an almost same manner as stretching culture of Example 4. After the culture was finished, photographs of cell adhesion state were taken with a phase contrast microscope (FIG. 2, bottom 4 rows) (FN, 3dC-3dS, LN, 3dC-3dS, FIB-1, 3dC-3dS, and AG-73, 3dC-3dS).

[5] = tested on: alveolar type II epithelial cells (T2 cells); test: Inhibition of T2 cell adhesion to immobilized cell adhesion peptide substrates by heparin treatment; format: cell-based; details: 24-hour culture
Procedure: 100 μg/ml of heparin solution was poured into a well prepared according to the method in Example 6, wherein the cell adhesion peptides were immobilized, and the incubation was conducted for 2 hours. The heparin solution was removed after heparin bound to the immobilized cell adhesion peptides, and T2 cell suspension was seeded on the well.
It is theoretically shown that after the cell adhesion peptides first bind to heparin and are covered with heparin, the cell adhesion receptors having heparin-like sugar chain (heparan sulfate) present on the cell surface, in other words, syndecan, a protein that belongs to heparan sulfate proteoglycan, cannot bind to the cell adhesion peptides by using the sugar chain part of the heparan sulfate, thereby the cell adhesion is inhibited.

[6] = tested on: alveolar type II epithelial cells (T2 cells); test: Binding strength (affinity) of immobilized LN peptides to T2 cells relative to immobilized FIB-1 (mixed immobilization, free FIB-1 competition); format: cell-based; set-up: key to Binding strength to T2 cells, Comprehensive evaluation: AA: extremely strongly binding/adhering; A: strongly binding/adhering; B: intermediately binding/adhering (as the same degree as FIB-1 peptide); C: more weakly binding/adhering than FIB-1 peptide
In short: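 MMAC-coated wells coated with FIB-1 (0.25 mg/ml) mixed with LN peptide (e.g. AG73) at varied ratios; free FIB-1 competition. T2 cells cultured serum-free 1 day; adhesion expressed relative to immobilized FIB-1 (100%). Relative binding strength derived from mixing ratio at transitional midpoint.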

[7] = tested on: alveolar type II epithelial cells (T2 cells); test: Inhibition by free cell adhesion peptides of T2 cell adhesion to coated cell adhesion proteins FN, Col I, LN, VN; format: cell-based; details: free peptide 0.25 mg/ml; serum-free, 1 day

YAVTGRGDSPAS [reference compound]
Cell adhesion/spreading on immobilized peptide [1]: almost all cells had finished spreading
Inhibition by free peptide of T2 cell adhesion to immobilized AG73 ([2]; AG73 (etc.) immobilized): no inhibition occurred
Inhibition by free peptide of T2 cell adhesion to immobilized AG73 and A4G82 peptides ([2]; AG73 and A4G82 immobilized): could not inhibit
Inhibition by free peptide of T2 cell adhesion to immobilized AG81.2 and AG73T ([2]; AG81.2 and AG73T immobilized): inhibited the adhesion
Inhibition by free peptide of T2 cell adhesion to immobilized FIB-1 ([2]; FIB-1 immobilized): competitively inhibited
Concentration of free FIB-1 peptide required to inhibit adhesion to FN [3]: ≥ 1 mg/mL
Reorientation of T2 cells under forced stretching ([4]; 1 day static, 1 day stretching (1dC-1dS), 25 percent, 15 times per minute): spread in an elongated shape to a direction perpendicular to the direction of forced stretching
Change of type II epithelial cells into a shape like type I epithelial cells ([4]; 3 days static, 3 days stretching (3dC-3dS)): less observed
Inhibition of cell adhesion to immobilized peptide by heparin treatment ([5]; 100 μg/ml heparin 2 hours): no inhibition
Inhibition degree of cell adhesion, Heparin ([5]; immobilized peptide treated with 100 μg/ml heparin 2 hours): No
Binding strength to T2 cells, Comprehensive evaluation ([6]; classification relative to FIB-1 peptide): B
Binding strength to T2 cells, Ratio to FIB-1 ([6]; inverse of mixing ratio at transitional midpoint, FIB-1 0.25 mg/ml, MMAC-coated well): (1)
Inhibition of adhesion of T2 cells to FN, Col I, LN and VN by free peptide [7]: does not exhibit inhibitory effect

Source: US8304238B2, “Cell culture medium and immobilized preparation of cell adhesion protein or peptide” (Nat'l Institute for Environmental Studies, priority 2003, dated 2012)
